US8835617B2, “Polynucleotides encoding a human TRIM-Cyp fusion polypeptide, compositions thereof, and methods of using same” (priority 2008, dated 2014)
Where two headings read alike, the source gives them in different places.

How the values were obtained:
HIV-1NL4-3 = test: HIV-1 challenge of CD4+ T cell cultures with <25% transduced cells; format: cell-based
Description: These conditions would be more realistic of hT5Cyp therapy in patients. […] The survival advantage of CD4^+ T cell becomes apparent when analyzing the viability of the cells by forward versus side-scatter and gating on live lymphocytes; a method that had to be adopted since the cells were fixed in paraformaldehyde for flow cytometry analysis.

[1] = system: primary human CD4+ T cells; test: Proliferation, IL-2 production and surface markers of transduced primary CD4+ T cells; format: cell-based
Description: The functions of endogenous CypA and T5 in hCD4^+ T cells remain largely uncharacterized. […] This complex inhibits T cell function by binding to the serine/threonine phosphatase calcineurin and blocking downstream signaling events (Handschumacher et al., 1984; Liu et al., 1991). Functionally, CypA is a peptidyl-prolyl isomerase (PPiase) which catalyses the rate-limiting cis-trans interconversion of peptide bonds N-terminal to proline, an enzymatic activity not required for immunosuppression via CsA (Fischer et al., 1984; Liu et al., 1991; Schmid, 1995). The peptidyl-prolyl isomerases are represented by three structurally distinct families: cyclophilins, FKBPs, and parvulins. Given their astounding evolutionary persistence, from some archeabacteria to all mammals, cyclophilins are not well understood (Colgan et al., 2000; Gothel and Marahiel, 1999).
Activated, scAPLS-transduced primary human CD4^+ T cells were maintained in culture for 6 days. 1×10^5 cells were transferred in triplicate into 96-well flat-bottom microplates (Falcon) and labeled for 18 h with […] of ^[3H]thymidine (GE-Amersham). The DNA-incorporated radioactivity was measured by liquid scintillation counting. Data were expressed as mean corrected counts per minute (ccpm) of […] cultures.
IL-2 producing capacity of hT5Cyp-expressing primary human T cells was assessed after stimulation for 6 h with 100 nM PMA and 1 μg/ml Ionomycin (Sigma-Aldrich). Brefeldin A (Sigma-Aldrich) was added at 10 μg/ml during the last 4 h of stimulation.
The following antibodies were used for cell surface stains of primary CD4^+ T cells: α-CD4 (RPA-T4), α-CXCR4 (12G5), and α-MHC I (HLA A, B, C) (G46-2.6) (all from BD-Pharmingen).

HIV-1 = system: HIV-1
Description: CD4^+ T cells were enriched from PBMCs using MACS, and activated using irradiated allo-PBMC and IL-2. […] Cells were sorted based on GFP-expression and then challenged with replication-competent, CXCR4-tropic, HIV-1NL4-3. […] Cells were infected with HIV-1NL4-3, modified to be CCR5-tropic.
293T human embryonic kidney cells and CRFK feline kidney cells were maintained in DMEM supplemented with 10% fetal bovine serum (FBS) and glutamax (Invitrogen). […] CD4^+ T cells were enriched from PBMCs (>99% CD4^+) using positive selection magnetic beads (Miltenyi Biotec) and stimulated for 24 hrs on multisorb 96-well plates (Nunc) coated with 2 μg/ml anti-CD3 and 2 μg/ml anti-CD28 antibodies (BD Biosciences) in RPMI with 10% FBS, glutamax (Invitrogen) and 20 IU/ml hIL-2. When indicated and in preparation for adoptive transfer to mice, CD4^+ T cells were stimulated using allogeneic-PBMCs irradiated at 50 Gy in the presence of 20 IU/ml IL-2 and phytohemagglutinin (PHA) at 1 μg/ml. Cells were washed and replated 24 hrs prior to viral transduction. […]
2×10^4 adherent cells/well or 8×10^4 suspension cells/well were plated in 48-well plates (Nunc) for challenge with single-cycle GFP reporter vectors that were titered as indicated. GFP synthesis was assessed by flow cytometry 48 hrs post-infection. […] For infection of 10^6 primary CD4^+ T cells or macrophages, 15 ng p24/10^6 cells of a CXCR4- or CCR5-tropic HIV-1NL4-3 stock was used, and infection was monitored by assessing the accumulation of RT activity in the supernatant (Sayah et al., 2004). FACSCalibur, Cellquest Pro (Becton Dickinson), and FlowJo software (Treestar, Inc.) were used to record and analyze fluorescence. […]
CD4^+ T cells and monocyte-derived macrophages were infected with low passage derivatives of primary isolates HIV-1DH12 and HIV-1132W, respectively. […] Infection was monitored by assessing the accumulation of RT activity in the supernatant at the indicated day post-infection, at which point CD4^+ cells were split and macrophages were fed as required.

**Q.** What does the source list for “hT5Cyp: human TRIM5α fused at serine 322 to human cyclophilin A, SEQ ID NO:12”?
**A.** RT activity in the culture supernatant (HIV-1NL4-3; mixed culture): significantly lower; day of peak viral replication (HIV-1NL4-3; mixed culture): 28 days; transduced cells in the culture after HIV-1 infection (HIV-1NL4-3; start <25% transduced): 75%; IL-2 production ([1]; PMA and ionomycin): produced comparable amounts of IL-2; proliferation ([1]; thymidine incorporation vs untransduced): proliferated at the same rate as untransduced cells; cell-surface marker expression ([1]; vs untransduced): expressed the same level of cell-surface CD4, CXCR4, and MHC I; establishment of infection (HIV-1; CCR5-tropic HIV-1NL4-3): infection is not established; establishment of infection (HIV-1; CXCR4-tropic HIV-1NL4-3): infection was not established; block to infection (HIV-1; primary isolate HIV-1DH12): The same hT5Cyp-mediated block to infection
